# Experimental data as given in PubChem BioAssay AID1845209 (Molecular Pharmacology Branch, DTP, NCI, 2023).
# pIC50: −log10 of the molar value.
# System: NCI-H211 tumor spheroids, viability percent test/control
# Test: Anticancer human tumor NCI-H211 cell line growth inhibition;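 note: spheroids exposed to agents for seven days before readout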
# Settings: spheroids with HUVEC and MSC; for pIC50: curve of first compound; for viability, T/C: stronger effect = lower value
# How it was run: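 Single agents and combinations were tested on spheroids built from tumor cells plus HUVEC and hMSC, at half-log dilutions starting at or near clinical Cmax, else 10 microM; final DMSO 0.25% (v/v).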
# [1] = second compound 30 pM, first compound 0.0316 µM
# [2] = second compound 30 pM, first compound 0.1 µM
# [3] = second compound 30 pM, first compound 0.316 µM
# [4] = second compound 30 pM, first compound 1 µM
# [5] = second compound 30 pM, first compound 3.16 µM
# [6] = second compound 30 pM, first compound 10 µM
# [7] = second compound 94.9 pM, first compound 0.0316 µM
# [8] = second compound 94.9 pM, first compound 0.1 µM
# [9] = second compound 94.9 pM, first compound 0.316 µM
# [10] = second compound 94.9 pM, first compound 1 µM
# [11] = second compound 94.9 pM, first compound 3.16 µM
# [12] = second compound 94.9 pM, first compound 10 µM
# [13] = second compound 0.0003 µM, first compound 0.0316 µM
# [14] = second compound 0.0003 µM, first compound 0.1 µM
# [15] = second compound 0.0003 µM, first compound 0.316 µM
# [16] = second compound 0.0003 µM, first compound 1 µM
# [17] = second compound 0.0003 µM, first compound 3.16 µM
# [18] = second compound 0.0003 µM, first compound 10 µM
# [19] = second compound 0.000949 µM, first compound 0.0316 µM
# [20] = second compound 0.000949 µM, first compound 0.1 µM
# [21] = second compound 0.000949 µM, first compound 0.316 µM
# [22] = second compound 0.000949 µM, first compound 1 µM
# [23] = second compound 0.000949 µM, first compound 3.16 µM
# [24] = second compound 0.000949 µM, first compound 10 µM
# [25] = second compound 0.003 µM, first compound 0.0316 µM
# [26] = second compound 0.003 µM, first compound 0.1 µM
# [27] = second compound 0.003 µM, first compound 0.316 µM
# [28] = second compound 0.003 µM, first compound 1 µM
# [29] = second compound 0.003 µM, first compound 3.16 µM
# [30] = second compound 0.003 µM, first compound 10 µM
compound,measurement,setting,value
[2H]c1nc(C)nc([2H])c1-c1cc(NC[C@@H](C)c2cccc3c(C(=O)NC)ccnc23)ncn1 + COc1cc2c(cc1O)CCNC21CSC2c3c(OC(C)=O)c(C)c4c(c3C(COC1=O)N1C(O)C3Cc5cc(C)c(OC)c(O)c5C(C21)N3C)OCO4,pIC50,second compound 30 pM,< 5.00
same,pIC50,second compound 94.9 pM,> 7.50
same,pIC50,second compound 0.0003 µM,> 7.50
same,pIC50,second compound 0.000949 µM,> 7.50
same,pIC50,second compound 0.003 µM,> 7.50
same,"viability, T/C",[1],103%
same,"viability, T/C",[2],104%
same,"viability, T/C",[3],100%
same,"viability, T/C",[4],99.6%
same,"viability, T/C",[5],102%
same,"viability, T/C",[6],78.2%
same,"viability, T/C",[7],16.1%
same,"viability, T/C",[8],15.9%
same,"viability, T/C",[9],19.4%
same,"viability, T/C",[10],17.4%
same,"viability, T/C",[11],7.6%
same,"viability, T/C",[12],3.55%
same,"viability, T/C",[13],0.71%
same,"viability, T/C",[14],0.97%
same,"viability, T/C",[15],0.84%
same,"viability, T/C",[16],0.85%
same,"viability, T/C",[17],0.8%
same,"viability, T/C",[18],1.01%
same,"viability, T/C",[19],0.83%
same,"viability, T/C",[20],0.71%
same,"viability, T/C",[21],0.61%
same,"viability, T/C",[22],0.65%
same,"viability, T/C",[23],0.74%
same,"viability, T/C",[24],0.72%
same,"viability, T/C",[25],0.21%
same,"viability, T/C",[26],0.21%
same,"viability, T/C",[27],0.19%
same,"viability, T/C",[28],0.19%
same,"viability, T/C",[29],0.19%
same,"viability, T/C",[30],0.23%
[2H]c1nc(C)nc([2H])c1-c1cc(NC[C@@H](C)c2cccc3c(C(=O)NC)ccnc23)ncn1 + Cn1nnc2c(C(N)=O)ncn2c1=O,pIC50,second compound 1 µM,< 5.00
same,pIC50,second compound 3.16 µM,< 5.00
same,pIC50,second compound 10 µM,< 5.00
same,pIC50,second compound 31.6 µM,5.48
same,pIC50,second compound 100 µM,> 7.50
same,"viability, T/C","second compound 1 µM, first compound 0.0316 µM",97.9%
same,"viability, T/C","second compound 1 µM, first compound 0.1 µM",96.7%
same,"viability, T/C","second compound 1 µM, first compound 0.316 µM",93.5%
same,"viability, T/C","second compound 1 µM, first compound 1 µM",95%
same,"viability, T/C","second compound 1 µM, first compound 3.16 µM",101%
same,"viability, T/C","second compound 1 µM, first compound 10 µM",88.9%
same,"viability, T/C","second compound 3.16 µM, first compound 0.0316 µM",108%
same,"viability, T/C","second compound 3.16 µM, first compound 0.1 µM",113%
same,"viability, T/C","second compound 3.16 µM, first compound 0.316 µM",98.7%
same,"viability, T/C","second compound 3.16 µM, first compound 1 µM",99.7%
same,"viability, T/C","second compound 3.16 µM, first compound 3.16 µM",95.3%
same,"viability, T/C","second compound 3.16 µM, first compound 10 µM",103%
same,"viability, T/C","second compound 10 µM, first compound 0.0316 µM",106%
same,"viability, T/C","second compound 10 µM, first compound 0.1 µM",105%
same,"viability, T/C","second compound 10 µM, first compound 0.316 µM",85.5%
same,"viability, T/C","second compound 10 µM, first compound 1 µM",103%
same,"viability, T/C","second compound 10 µM, first compound 3.16 µM",65%
same,"viability, T/C","second compound 10 µM, first compound 10 µM",82.6%
same,"viability, T/C","second compound 31.6 µM, first compound 0.0316 µM",61.5%
same,"viability, T/C","second compound 31.6 µM, first compound 0.1 µM",53.1%
same,"viability, T/C","second compound 31.6 µM, first compound 0.316 µM",49.8%
same,"viability, T/C","second compound 31.6 µM, first compound 1 µM",47.5%
same,"viability, T/C","second compound 31.6 µM, first compound 3.16 µM",51.6%
same,"viability, T/C","second compound 31.6 µM, first compound 10 µM",18.4%
same,"viability, T/C","second compound 100 µM, first compound 0.0316 µM",33%
same,"viability, T/C","second compound 100 µM, first compound 0.1 µM",21.6%
same,"viability, T/C","second compound 100 µM, first compound 0.316 µM",15.9%
same,"viability, T/C","second compound 100 µM, first compound 1 µM",13.6%
same,"viability, T/C","second compound 100 µM, first compound 3.16 µM",11.7%
same,"viability, T/C","second compound 100 µM, first compound 10 µM",8.11%
COc1ccc([C@@H](O)c2cc(-c3ncnc4cc(N5CCOCC5)ccc34)c(F)cc2Cl)nn1 + COc1cc2c(cc1O)CCNC21CSC2c3c(OC(C)=O)c(C)c4c(c3C(COC1=O)N1C(O)C3Cc5cc(C)c(OC)c(O)c5C(C21)N3C)OCO4,pIC50,second compound 30 pM,6.23
same,pIC50,second compound 94.9 pM,> 7.50
same,pIC50,second compound 0.0003 µM,> 7.50
same,pIC50,second compound 0.000949 µM,> 7.50
same,pIC50,second compound 0.003 µM,> 7.50
same,"viability, T/C",[1],104%
same,"viability, T/C",[2],91.7%
same,"viability, T/C",[3],71.9%
same,"viability, T/C",[4],33%
same,"viability, T/C",[5],1.14%
same,"viability, T/C",[6],0.29%
same,"viability, T/C",[7],20.6%
same,"viability, T/C",[8],12.6%
same,"viability, T/C",[9],4.86%
same,"viability, T/C",[10],0.5%
same,"viability, T/C",[11],0.35%
same,"viability, T/C",[12],0.2%
same,"viability, T/C",[13],0.7%
same,"viability, T/C",[14],0.77%
same,"viability, T/C",[15],0.73%
same,"viability, T/C",[16],0.58%
same,"viability, T/C",[17],0.36%
same,"viability, T/C",[18],0.11%
same,"viability, T/C",[19],0.63%
same,"viability, T/C",[20],0.64%
same,"viability, T/C",[21],0.51%
same,"viability, T/C",[22],0.16%
same,"viability, T/C",[23],0.02%
same,"viability, T/C",[24],0.11%
same,"viability, T/C",[25],0.1%
same,"viability, T/C",[26],0.11%
same,"viability, T/C",[27],0.1%
same,"viability, T/C",[28],0.1%
same,"viability, T/C",[29],0.1%
same,"viability, T/C",[30],0.16%
